Assay [1] has as its system Mda-mb-231. In words: In vitro antiproliferative assay (CCK-8). Conditions: Homo sapiens, MDA-MB-231, 48 h, read-out: IC50 ± SD Mda-mb-231.
Protocol: (§1) Hela and MDA-MB-132 cells were grown in DMEM (Gibco) containing 10% FBS and 1% double antibody (penicillin 100 U/mL, streptomycin 100 μg/mL, Solarbio). […] All cell lines were purchased from the Xiangya Cell Bank, Central South University, Changsha, China, and incubated at 37 °C with 5% CO2 in a humidified atmosphere. […] Cytotoxicity assay was assessed using CCK-8 methods. The cells were seeded in a 96-well plate (2 × 10^3–3 × 10^3 cells/well), the 96-well plate was incubated at 37 °C with 5% CO2 in a humidified atmosphere, and the cells were grown in a monolayer; the original culture was discarded. A total of 100 μL of drug-containing medium with a specific concentration gradient was added and then cultivated for 48 h; 10 μL/well of CCK-8 solution was added, put in an incubator, and incubated for 1 h and read with a multi-function microplate reader at a wavelength of 450 nm. The inhibition rate was calculated, and the IC50 results were calculated by GraphPad Prism 7 software. The experiment was repeated three times.
Assay [2] deals with Hela cells. In words: Annexin V-FITC/PI double-staining cell-apoptosis assay. It is filed as cell-based, human. Conditions: 24 h, in words. As to the method: Then, the preset drug concentration was added and incubated for 24 h. Cells were collected by centrifugation, resuspended in buffer, and then stained by adding Annexin V-FITC (5 μL) and PI Staining Solution (5 μL) and incubated at room temperature for 10 min. The samples were detected by flow cytometry within 1 h after staining. Flow cytometer (Beckman Coulter Cytofex) was used for subsequent detection, and the data were processed with FlowJo software.

For assay [3], the system named is tubulin. In words: Tubulin polymerization assay in vitro. It is filed as biochemical. Conditions: cell-free, purified tubulin, 37 °C, absorbance 340 nm. As for the experimental part:
We used an HTS-Tubulin Polymerization Assay Kit (BK004P, Cytoskeleton, USA) to assess the inhibitory effect of compounds on tubulin polymerization. Tubulin solution was prepared, and the compound solution and paclitaxel solution were tested according to the instructions of the kit. General tubulin buffer, paclitaxel solution, and 10× test compound solution were added to a 96-well plate (10 μL/well) and incubated at 37 °C for two minutes. A total of 100 μL of tubulin solution was pipetted into the corresponding wells. The plate was immediately placed on a multi-function microplate reader at 37 °C, and the continuous kinetic values were recorded.
Figure 7 The effect of compound 20 and compound 27 on in vitro tubulin polymerization was tested. Polymerization of purified tubulin was performed in a cell-free assay. Tubulin protein was incubated at 37 °C in a reaction buffer exposed to vehicle control or test compounds at the indicated concentrations. Absorbance at 340 nm was monitored at 37 °C every 30 s for 1 h.

For assay [4], the system named is Hepg2. Put plainly: In vitro antiproliferative assay (CCK-8). The following applies: Homo sapiens, HepG2, 48 h, read-out: IC50 ± SD Hepg2.
Protocol: as §1
For assay [5], the system named is Hela cells. Put plainly: Cell-cycle assay (flow cytometry, propidium iodide). It is filed as cell-based, human. Conditions: 24 h; for number of cells in the mitotic G2/M phase: in words. As to the method:
Then, the preset drug concentration was added and incubated for 24 h. Cells were collected by centrifugation and were fixed overnight with pre-cooled ethanol (70%) and washed twice with buffer, propidium-iodide staining solution was added (0.5 mL/well), and they were incubated at 37 °C for 30 min in the dark for flow detection.
For orientation: Flow cytometry measures light scatter and fluorescence of single cells or particles in a stream.

The subject of assay [6] is Hela. In words: In vitro antiproliferative assay (CCK-8). It is filed as cell-based, human. The following applies: Homo sapiens, HeLa; CCK-8, 48 h, mean ± SD. An excerpt:
The experiment was repeated three times.

Assay [7] concerns Mcf-7. In words: In vitro antiproliferative assay (CCK-8). Conditions: Homo sapiens, MCF7, 48 h, read-out: IC50 ± SD Mcf-7.
Protocol: as §1
In assay [8] the test system is Cdc20 and downstream substrates (cyclin B1, securin, Bim, cleaved PARP) in Hela cells. Put plainly: Western blot of Cdc20 and Cdc20 downstream proteins. It is filed as cell-based, human. Conditions: for Cdc20 protein level: 12 h after addition. As for the experimental part:
The lysate for extracting cellular proteins was prepared with bromophenol blue (0.02%), dithiothreitol (DTT; 0.5M), glycerol (30%), sodium dodecyl sulfate (SDS; 10%) and Tris-Cl (0.25M, pH 6.8). Protein extracts were separated according to molecular weight by the polyacrylamide gel electrophoresis (PAGE) method and then transferred to solid-phase support (PVDF membrane). The PVDF membrane was placed in a blocking solution containing 5% skim milk for 2 h, followed by incubation with primary and secondary antibodies, and the bands were detected and imaged in the ChemiDocTMXRS+ imaging system.
Figure 1 (A) Expression levels of Cdc20 protein in different cell lines. (B) Cdc20 levels were measured by Western blot 12 h after the addition of compounds. The reproducibility of the results was confirmed by at least two separate experiments. (a) Quantitative results of (A) compared to Hela. (b) Quantitative results of (B) compared to control. Statistical significance was calculated by two-tailed unpaired t test.
Figure 4 (A) Protein levels of cyclin B1 and securin were measured by Western blot. (B) Protein levels of Bim were measured by Western blot. (C) Protein levels of cleaved PARP were measured by Western blot. […] (a–d) Quantitative results of (A–C) compared to control. Statistical significance was calculated by two-tailed unpaired t test (* p < 0.05, ** p < 0.01, *** p < 0.001).
(In general: In western blotting, separated proteins are transferred to a membrane and probed.)

Assay [9] has as its system four cancer-cell lines. Put plainly: In vitro antiproliferative assay (CCK-8), cell line not given. The following applies: Homo sapiens, read-out: IC50 (antiproliferative activity).
For assay [10], the target named is recombinant human Cdc20 protein (Homo sapiens, UniProt Q12834). Put plainly: Surface plasmon resonance (SPR) assay. It is filed as binding. As to the method:
Surface plasmon resonance (SPR) analysis can measure the interaction process between various biomolecules, such as polypeptides, proteins, oligonucleotides, and oligosaccharides, as well as viruses, bacteria, cells, and small molecular compounds. First, we installed the COOH chip according to the standard operating procedure of the OpenSPRTM instrument and started running it at the maximum flow rate (150 μL/min). The detection buffer was PBS, and after reaching the signal baseline, 200 μL of isopropanol were loaded and the air was removed by running for 10 s. After reaching baseline, the sample loop was flushed with buffer and evacuated with air, and after the signal reached baseline, the buffer flow rate was adjusted to 20 μL/min. A total of 200 μL of EDC/NHS (1:1) solution (20 μL/min, 4 min), 200 μL EDC/NHS (1:1) solution (20 μL/min, 4 min), and 200 μL recombinant human Cdc20 protein buffer was loaded and run for 4 min (20 μL/min), and the sample loop was rinsed with buffer and drained with null air. A total of 200 μL of blocking solution was loaded (20 μL/min, 4 min), and the sample loop was flushed with buffer and evacuated with air. After the baseline was stable, the analyte was diluted with buffer and loaded at 20 μL/min. The binding time of the analyte and the ligand was 240 s, and the natural dissociation time was 480 s. The analysis software used for the experimental results was TraceDrawer (Ridgeview Instruments ab, Sweden), and the analysis method was the one-to-one analysis model.
Molecules were tested in a dilution series starting at 500 μM. The analyte was diluted with buffer and loaded at 20 μL/min. The binding time of the analyte and the ligand was 240 s, and the natural dissociation time was 480 s. The analysis software used for the experimental results was TraceDrawer (Ridgeview Instruments AB, Sweden), and the analysis method was the one-to-one analysis model.
(In general: Surface plasmon resonance follows binding to a sensor surface in real time, without labels.)

Assay [11] has as its system Hela. Details: method as in PMID 32290657. The following applies: previous studies; read-out: IC50 ± SD Hela; cited from earlier work.
Assay [12] has as its system tubulin. Details: method as in PMID 32290657. The following applies: previous research of the authors; cited from earlier work.
The subject of assay [13] is Hepg2. The arrangement: method as in PMID 32290657. The following applies: previous studies; read-out: IC50 ± SD Hepg2; cited from earlier work.
Assay [14] concerns Mcf-7. Details: method as in PMID 32290657. Conditions: previous studies; read-out: IC50 ± SD Mcf-7; cited from earlier work.

Read-outs that look alike come from different tables or passages of the source.

Consider four compounds from publication PMC9964651, “Discovery of Ureido-Based Apcin Analogues as Cdc20-specific Inhibitors against Cancer” (Pharmaceuticals, 2023).

The term IC50 denotes the concentration that gives 50% inhibition. As usually defined, the Kd is the free concentration of one partner at which half of the binding sites on the other are occupied at equilibrium, for simple one-to-one binding.

Sequence of recombinant human Cdc20 protein (Q12834 whole entry): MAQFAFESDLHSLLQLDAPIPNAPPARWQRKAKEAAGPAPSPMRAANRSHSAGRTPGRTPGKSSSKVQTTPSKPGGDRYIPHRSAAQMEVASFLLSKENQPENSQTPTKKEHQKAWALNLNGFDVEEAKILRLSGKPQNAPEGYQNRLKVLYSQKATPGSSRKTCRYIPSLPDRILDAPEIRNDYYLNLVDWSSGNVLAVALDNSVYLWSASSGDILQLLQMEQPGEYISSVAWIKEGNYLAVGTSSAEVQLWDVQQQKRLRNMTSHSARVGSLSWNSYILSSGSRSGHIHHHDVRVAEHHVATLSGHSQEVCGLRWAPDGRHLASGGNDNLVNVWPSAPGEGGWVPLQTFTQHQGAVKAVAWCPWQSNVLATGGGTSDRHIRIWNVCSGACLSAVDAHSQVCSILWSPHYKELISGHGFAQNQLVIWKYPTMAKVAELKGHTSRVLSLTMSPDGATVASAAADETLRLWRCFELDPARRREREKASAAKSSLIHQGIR

Take `Nc1nc(F)nc2c1ncn2C(NC(=O)NCCN1CCOCC1)C(Cl)(Cl)Cl` (centres unmarked) [Compound 27, 1-(1-(6-amino-2-fluoro-9H-purin-9-yl)-2,2,2-trichloroethyl)-3-(2-morpholinoethyl)urea]: in [1], the IC50 turned out to be 0.32 ± 0.04 µM. Also, in assay [2], the apoptotic rates result is “increased in a concentration-dependent way”. The “effect on microtubule polymerization” value in [3] (3 μM and 30 μM) is “promoted microtubule polymerization in a concentration-dependent manner”. Besides, in assay [4], the IC50 was determined as 0.24 ± 0.11 µM. Moreover, the “number of cells in the mitotic G2/M phase” value in assay [5] is “slightly reduced”. Also, half-maximal inhibition in assay [6] (IC50) required 0.06 ± 0.02 µM. Also, the IC50 in assay [7] worked out at 0.27 ± 0.06 µM. Further, in assay [8], the “expression of Bim” value is “significantly increase”, the “expression of cleaved PARP” value is “significantly increase”, the “level of cyclin B1 protein” value was “significantly increased” and the “level of securin protein” value was “significantly increased”. In assay [8], the Cdc20 protein level result is “no effect”.
In the case of `Nc1c(Cl)nc(NC(NC(=O)NCCc2ccccc2)C(Cl)(Cl)Cl)nc1Cl` (centres unmarked) [Compound 20, 1-(1-((5-amino-4,6-dichloropyrimidin-2-yl)amino)-2,2,2-trichloroethyl)-3-phenethylurea], the IC50 in assay [9] was below 40 µM; in [1] it was 30.4 ± 13 µM; in assay [4], 31.2 ± 8.37 µM; in [6], 24.7 ± 2.01 µM; in [7], 35 ± 3.06 µM. Moreover, the Kd in assay [10] (dissociation-equilibrium constant, one-to-one model) stood at 79.6 µM. Moreover, in assay [10] (dissociation-rate constant, one-to-one model), the “Kd (1/S)” value was 5.78 × 10^−3 1/S. Moreover, the “binding affinity to Cdc20 relative to Apcin” value in assay [10] (from Kd values) was “about three times”. Also, the apoptotic rates result in assay [2] is listed as “increased in a concentration-dependent way”. Also, the “effect on microtubule polymerization” value in assay [3] (30 μM) is “slightly promoted microtubule polymerization”. Moreover, in assay [5] (40μm), the “P4 gate (cells in the G2/M phase)” value is recorded as 41.09%. In assay [5], the “number of cells in the mitotic G2/M phase” value is given as “significant increase”. Besides, in [8], the “expression of Bim” value is “significantly increase”. In addition, the “expression of cleaved PARP” value in assay [8] is listed as “significantly increase”. For the same compound, the “level of cyclin B1 protein” value in assay [8] is given as “significantly increased”. The “level of securin protein” value in assay [8] is “significantly increased”. Besides, in assay [8], the Cdc20 protein level entry was “no effect”.
On to `Nc1nc(F)nc2c1ncn2[C@H](NC(=O)OCCN1CCOCC1)C(Cl)(Cl)Cl` [Compound 9f, reference compound], for which the IC50 in assay [1] was 1.4 ± 0.22 µM; in assay [11], 0.3 ± 0.2 µM; in [4] it was 0.41 ± 0.36 µM; in assay [6], 0.1 ± 0.02 µM; in assay [7], 0.61 ± 0.12 µM. In addition, the “effect on Cdc20 and microtubules” value in assay [12] was “dual inhibitory effects of Cdc20 and microtubules”.
Consider `Cc1ncc([N+](=O)[O-])n1CCOC(=O)N[C@H](Nc1c(Cl)nc(N)nc1Cl)C(Cl)(Cl)Cl` [Compound 7d], for which the results for the IC50 in [13], in assay [14] and in assay [11] were 25.6 ± 6.1 µM, 160 ± 5 µM and 63.2 ± 0.9 µM, respectively.
